According to the NIST ThermoML archive (doi:10.1016/j.jct.2018.07.015):
Numbers after ± are expanded uncertainties.

Assay: mn = molality of the nth substance listed, in mol/kg
Settings: 100 kPa, Liquid; for speed of sound: Frequency=3 MHz, Single path-length method; for mass density: Vibrating tube method

Work on `OCC(O)CO` [glycerol] + O yielded a speed of sound (293.15 K, m1 = 0.01) of 1483.2 ± 1 m/s, a speed of sound (293.15 K, m1 = 0.03) of 1484 ± 1 m/s and a speed of sound (293.15 K, m1 = 0.05) of 1484.8 ± 1 m/s. It also gave a speed of sound (293.15 K, m1 = 0.07) of 1485.5 ± 1 m/s, a mass density (293.15 K, m1 = 0.01) of 998.452 ± 0.3 kg/m3 and a mass density (293.15 K, m1 = 0.03) of 998.865 ± 0.3 kg/m3. The mass density (293.15 K, m1 = 0.05) was 999.29 ± 0.3 kg/m3, the mass density (293.15 K, m1 = 0.07) was 999.691 ± 0.3 kg/m3 and the speed of sound (298.15 K, m1 = 0.01) was 1497 ± 1 m/s. The speed of sound (298.15 K, m1 = 0.03) was 1497.8 ± 1 m/s, the speed of sound (298.15 K, m1 = 0.05) was 1498.6 ± 1 m/s and the speed of sound (298.15 K, m1 = 0.07) was 1499.3 ± 1 m/s. It also gave a mass density (298.15 K, m1 = 0.01) of 997.308 ± 0.3 kg/m3, a mass density (298.15 K, m1 = 0.03) of 997.707 ± 0.3 kg/m3 and a mass density (298.15 K, m1 = 0.05) of 998.124 ± 0.3 kg/m3. The mass density (298.15 K, m1 = 0.07) was 998.513 ± 0.3 kg/m3, the speed of sound (303.15 K, m1 = 0.01) was 1509.3 ± 1 m/s and the speed of sound (303.15 K, m1 = 0.03) was 1510 ± 1 m/s. For the same compound, the speed of sound (303.15 K, m1 = 0.05) was 1510.7 ± 1 m/s, the speed of sound (303.15 K, m1 = 0.07) was 1511.4 ± 1 m/s and the mass density (303.15 K, m1 = 0.01) was 995.869 ± 0.3 kg/m3. For the same compound, the mass density (303.15 K, m1 = 0.03) was 996.304 ± 0.3 kg/m3, the mass density (303.15 K, m1 = 0.05) was 996.72 ± 0.3 kg/m3 and the mass density (303.15 K, m1 = 0.07) was 997.109 ± 0.3 kg/m3. The speed of sound (308.15 K, m1 = 0.01) was 1519.9 ± 1 m/s, the speed of sound (308.15 K, m1 = 0.03) was 1520.6 ± 1 m/s and the speed of sound (308.15 K, m1 = 0.05) was 1521.2 ± 1 m/s. The speed of sound (308.15 K, m1 = 0.07) was 1521.8 ± 1 m/s, the mass density (308.15 K, m1 = 0.01) was 994.253 ± 0.3 kg/m3 and the mass density (308.15 K, m1 = 0.03) was 994.684 ± 0.3 kg/m3. The mass density (308.15 K, m1 = 0.05) was 995.094 ± 0.3 kg/m3 and the mass density (308.15 K, m1 = 0.07) was 995.469 ± 0.3 kg/m3.

`O` [water] + OCC(O)CO gave a speed of sound (298.15 K, m2 = 0) of 1495.8 ± 1 m/s and a speed of sound (308.15 K, m2 = 0) of 1519.1 ± 1 m/s.
